Results reported in publication PMC3703823 (Clinical cancer research : an official journal of the …, 2011).
≈ marks a conversion by molar mass, not a printed value.

Columns and labels:
AAG = conditions: cited from earlier work
human hepatocytes = conditions: in vitro; cited from earlier work
[1] = test system: alpha-1-acid glycoprotein (AAG); assay: SPR-based biosensor; format: binding; conditions: human
[2] = across animal species; cited from earlier work
clinical = conditions: human, plasma, po
In vitro solubility = format: physicochemical

Compound | KD for AAG (corresponding to reported KA) (AAG) [µM] | Compound remaining intact following coincubations with human hepatocytes (human hepatocytes) [%] | Kd [1] [µM] | Oral bioavailability [2] | half-life (clinical) [h] | AUC(0-t) (clinical; 150 mg) [µM·h] | Cmax (clinical; 150 mg) [µM] | AUC(0-t) (clinical; 270 mg) [µM·h] | Cmax (clinical; 270 mg) [µM] | AUC(0-t) (clinical; 540 mg) [µM·h] | Cmax (clinical; 540 mg) [µM] | solubility (In vitro solubility; pH 0.1) [µg/mL] | solubility (In vitro solubility; pH 6.5) [µg/mL]
CN[C@@H]1C[C@H]2O[C@@](C)([C@@H]1OC)n1c3ccccc3c3c4c(c5c6ccccc6n2c5c31)C(=O)N[C@H]4O [UCN-01] | 0.00125 |  |  |  |  |  |  |  |  |  |  |  | 
CS(=O)(=O)c1ccc(C(=O)Nc2ccc(Cl)c(-c3ccccn3)c2)c(Cl)c1 [GDC-0449, 2-chloro-N-[4-chloro-3-(pyridin-2-yl)phenyl]-4-[methylsulfonyl]benzamide] |  | ~100 | 13 | good | > 168 | 322 ± 185 | 3.58 ± 1.34 | 839 ± 458 | 6.34 ± 3.4 | 1010 | 6.81 ± 2.69 | 990 (≈ 2350 µM) | 0.1 (≈ 0.237 µM)
